The structures appear in SMILES notation. Where a SMILES comes first, the peptide text is derived from it.

For this assay, the target named is HLA A*3201 (Homo sapiens, UniProt P04439, A270S/D101S/D185E/E176V/E277Q/F133L/G103R/G107R/G231S/H175R/I121M/I218V/I322F/K168Q/L105A/L300P/L318F/M331R/P208A/P217A/Q94H/R106L/R138Q/S129P/T104I/T323A/T345S/V100E/V321M/V358M). Kind of assay: biochemical. The assay is classed as binding.
Broadly, the IC50 is the concentration that gives 50% inhibition. Read a low IC50 as greater potency in that assay. Consider `CC[C@H](C)[C@H](NC(=O)[C@H](Cc1ccccc1)NC(=O)[C@@H](NC(=O)[C@H](CCC(N)=O)NC(=O)[C@@H](N)CCCNC(=N)N)[C@@H](C)CC)C(=O)N[C@@H](Cc1c[nH]cn1)C(=O)N[C@@H](Cc1ccc(O)cc1)C(=O)N[C@@H](CO)C(=O)N[C@H](C(=O)O)C(C)C` [3102.0296] (H-RQIFIHYSV-OH), for which the 50% inhibitory concentration (IC50) was determined as 1 nM.
Take `CC[C@H](C)[C@H](NC(=O)[C@@H](NC(=O)[C@H](CC(C)C)NC(=O)[C@H](CO)NC(=O)[C@H](CCC(N)=O)NC(=O)[C@H](Cc1ccccc1)NC(=O)[C@H](CC(=O)O)NC(=O)[C@H](CCC(N)=O)NC(=O)[C@H](C)N)[C@@H](C)O)C(=O)O` [3102.0299] (H-AQDFQSLTI-OH): the IC50 turned out to be 68 nM. This IC50 lies about 68-fold higher than the previous one.
The figure for `CC[C@H](C)[C@H](N)C(=O)N[C@@H](CC(C)C)C(=O)N[C@@H](Cc1ccc(O)cc1)C(=O)N[C@@H](Cc1ccc(O)cc1)C(=O)N[C@@H](CC(C)C)C(=O)N[C@@H](CO)C(=O)N[C@@H](C)C(=O)N[C@@H](CCCCN)C(=O)N[C@H](C(=O)O)[C@@H](C)CC` [3102.0300] (H-ILYYLSAKI-OH) is 8.9 nM.
The figure for `CC(C)C[C@H](NC(=O)[C@H](Cc1ccc(O)cc1)NC(=O)[C@H](CC(N)=O)NC(=O)[C@H](Cc1ccccc1)NC(=O)[C@H](Cc1c[nH]c2ccccc12)NC(=O)[C@H](CC(C)C)NC(=O)[C@H](CC(C)C)NC(=O)[C@@H](N)CC(C)C)C(=O)N[C@@H](Cc1ccccc1)C(=O)O` [3102.0301] (H-LLLWFNYLF-OH) is 1.5 nM; for `CC[C@H](C)[C@H](NC(=O)[C@H](Cc1ccccc1)NC(=O)[C@@H](NC(=O)[C@@H](NC(=O)[C@@H](N)CO)[C@@H](C)CC)[C@@H](C)CC)C(=O)N[C@@H](CC(N)=O)C(=O)N[C@@H](Cc1ccc(O)cc1)C(=O)N[C@H](C(=O)N[C@@H](CCSC)C(=O)O)[C@@H](C)O` [3102.0303] (H-SIIFINYTM-OH) it is 6.5 nM; for `CC[C@H](C)[C@H](NC(=O)[C@H](CO)NC(=O)[C@H](CO)NC(=O)[C@@H](NC(=O)[C@H](CO)NC(=O)[C@H](Cc1ccccc1)NC(=O)[C@@H](NC(=O)[C@@H](N)CO)[C@@H](C)O)[C@@H](C)CC)C(=O)N[C@@H](Cc1ccccc1)C(=O)O` [3102.0305] (H-STFSISSIF-OH) it is 1.1 nM.
The figure for `CC[C@H](C)[C@H](NC(=O)[C@@H](NC(=O)[C@H](Cc1ccccc1)NC(=O)[C@H](Cc1ccccc1)NC(=O)[C@H](CC(C)C)NC(=O)[C@H](Cc1ccccc1)NC(=O)[C@H](CC(=O)O)NC(=O)[C@@H](NC(=O)[C@@H](N)CCCCN)[C@@H](C)CC)[C@@H](C)CC)C(=O)O` [3102.0306] (H-KIDFLFFII-OH) is 2 nM; for `C[C@@H](O)[C@H](NC(=O)[C@H](CCCNC(=N)N)NC(=O)[C@H](CC(N)=O)NC(=O)[C@H](Cc1ccccc1)NC(=O)[C@@H](NC(=O)[C@@H](N)CCCNC(=N)N)[C@@H](C)O)C(=O)N[C@@H](Cc1c[nH]cn1)C(=O)N[C@@H](Cc1ccc(O)cc1)C(=O)N[C@@H](Cc1c[nH]c2ccccc12)C(=O)O` [3102.0309] (H-RTFNRTHYW-OH) it is 0.24 nM.
Turning to `CC[C@H](C)[C@H](NC(=O)[C@H](CO)NC(=O)[C@H](CCC(N)=O)NC(=O)[C@H](CCC(N)=O)NC(=O)[C@H](CC(C)C)NC(=O)[C@H](Cc1ccccc1)NC(=O)[C@H](CC(C)C)NC(=O)[C@@H](NC(=O)[C@@H](N)CCCCN)C(C)C)C(=O)O` [3102.0312] (H-KVLFLQQSI-OH), the IC50 was found to be 0.7 nM.
The molecule `CC[C@H](C)[C@H](NC(=O)[C@@H](N)CO)C(=O)N[C@@H](Cc1ccc(O)cc1)C(=O)NCC(=O)N[C@@H](Cc1ccccc1)C(=O)NCC(=O)N[C@H](C(=O)N[C@H](C(=O)N[C@@H](Cc1ccccc1)C(=O)O)[C@@H](C)O)C(C)C` [3102.0314] (H-SIYGFGVTF-OH) displayed an IC50 of 0.11 nM.
As to `CSCC[C@H](NC(=O)[C@H](CCCCN)NC(=O)[C@H](CC(N)=O)NC(=O)[C@H](CC(C)C)NC(=O)[C@@H](N)CCCCN)C(=O)N[C@H](C(=O)N[C@H](C(=O)N[C@@H](CCC(=O)O)C(=O)N[C@@H](CC(C)C)C(=O)O)C(C)C)[C@@H](C)O` [3102.0316] (H-KLNKMTVEL-OH), the IC50 was found to be 1.7 nM.
The figure for `CC[C@H](C)[C@H](NC(=O)[C@@H](NC(=O)[C@@H](NC(=O)[C@H](Cc1ccccc1)NC(=O)[C@H](Cc1ccccc1)NC(=O)[C@@H](NC(=O)[C@H](CC(C)C)NC(=O)[C@@H](NC(=O)[C@@H](N)CO)[C@@H](C)O)[C@@H](C)CC)C(C)C)[C@@H](C)CC)C(=O)O` [3102.0317] (H-STLIFFVII-OH) is 18 nM.
The figure for `CC(C)[C@H](NC(=O)CNC(=O)[C@H](Cc1ccc(O)cc1)NC(=O)[C@@H](NC(=O)[C@@H](N)CCCNC(=N)N)[C@@H](C)O)C(=O)N[C@@H](CC(N)=O)C(=O)N[C@@H](Cc1ccc(O)cc1)C(=O)N[C@H](C(=O)N[C@@H](Cc1ccccc1)C(=O)O)[C@@H](C)O` [3102.0318] (H-RTYGVNYTF-OH) is 0.26 nM; for `CC[C@H](C)[C@H](NC(=O)[C@H](C)NC(=O)[C@H](CC(N)=O)NC(=O)[C@@H](NC(=O)[C@@H]1CCCN1C(=O)[C@H](CCC(=O)O)NC(=O)[C@@H](NC(=O)[C@H](CC(C)C)NC(=O)[C@@H](N)CCCCN)[C@@H](C)CC)C(C)C)C(=O)O` [3102.0321] (H-KLIEPVNAI-OH) it is 11 nM.
`CC[C@H](C)[C@H](NC(=O)[C@H](CCC(=O)O)NC(=O)[C@H](Cc1ccccc1)NC(=O)[C@H](CO)NC(=O)[C@@H](N)CCCNC(=N)N)C(=O)N[C@H](C(=O)N[C@@H](CC(N)=O)C(=O)N[C@H](C(=O)N[C@@H](CC(C)C)C(=O)O)C(C)C)[C@@H](C)CC` [3102.0322] (H-RSFEIINVL-OH) came in with an IC50 of 2.9 nM.
As for `CC[C@H](C)[C@H](NC(=O)[C@H](CCCNC(=N)N)NC(=O)[C@H](CCC(N)=O)NC(=O)[C@H](C)NC(=O)[C@@H](NC(=O)[C@H](CC(N)=O)NC(=O)[C@H](Cc1ccccc1)NC(=O)[C@H](CC(C)C)NC(=O)[C@@H](N)CCCCN)[C@@H](C)CC)C(=O)O` [3102.0323] (H-KLFNIAQRI-OH), the IC50 stood at 1.6 nM. This IC50 lies about 1.8-fold lower than the previous one.
The figure for `CC[C@H](C)[C@H](NC(=O)[C@H](CC(N)=O)NC(=O)[C@H](CC(C)C)NC(=O)[C@@H](NC(=O)[C@@H](N)C(C)C)[C@@H](C)O)C(=O)N[C@@H](CO)C(=O)N[C@@H](CO)C(=O)N[C@@H](CCCCN)C(=O)N[C@@H](Cc1ccccc1)C(=O)O` [3102.0324] (H-VTLNISSKF-OH) is 11 nM; for `CC[C@H](C)[C@H](N)C(=O)N[C@H](C(=O)N[C@@H](CC(N)=O)C(=O)N[C@@H](CCCCN)C(=O)N[C@@H](Cc1ccccc1)C(=O)N[C@@H](Cc1ccccc1)C(=O)N[C@@H](CCC(=O)O)C(=O)N[C@H](C(=O)N[C@H](C(=O)O)[C@@H](C)CC)C(C)C)[C@@H](C)CC` [3102.0325] (H-IINKFFEVI-OH) it is 11 nM.
The figure for `CC[C@H](C)[C@H](NC(=O)[C@H](CC(C)C)NC(=O)[C@H](C)NC(=O)[C@@H](NC(=O)[C@H](C)N)[C@@H](C)O)C(=O)N[C@@H](CC(C)C)C(=O)N[C@H](C(=O)N[C@@H](CO)C(=O)N[C@@H](Cc1ccccc1)C(=O)O)C(C)C` [3102.0327] (H-ATALILVSF-OH) is 1.4 nM.
Take `CC[C@H](C)[C@H](NC(=O)[C@@H](NC(=O)[C@H](CC(C)C)NC(=O)[C@H](CC(C)C)NC(=O)[C@H](CC(C)C)NC(=O)[C@H](CO)NC(=O)[C@H](Cc1ccccc1)NC(=O)[C@H](CC(C)C)NC(=O)[C@@H](N)CO)C(C)C)C(=O)O` [3102.0328] (H-SLFSLLLVI-OH): the IC50 turned out to be 28 nM.
In the case of `CC[C@H](C)[C@H](NC(=O)[C@@H](NC(=O)[C@@H](NC(=O)[C@H](Cc1c[nH]cn1)NC(=O)[C@H](CC(C)C)NC(=O)[C@H](CCSC)NC(=O)[C@H](CC(N)=O)NC(=O)[C@H](CCC(N)=O)NC(=O)[C@@H](N)CCCCN)C(C)C)[C@@H](C)CC)C(=O)O` [3102.0329] (H-KQNMLHVII-OH), the IC50 amounted to 2.1 nM.
Regarding `CC[C@H](C)[C@H](NC(=O)[C@H](CO)NC(=O)[C@@H](NC(=O)[C@H](C)NC(=O)[C@@H](NC(=O)[C@H](CC(C)C)NC(=O)[C@H](CC(C)C)NC(=O)[C@@H](NC(=O)[C@@H](N)CCCCN)[C@@H](C)CC)C(C)C)C(C)C)C(=O)O` [3102.0330] (H-KILLVAVSI-OH), inhibition was half-maximal at 1.5 nM (IC50). The IC50 values of the last two molecules are within 1.5-fold of each other.
The figure for `CC[C@H](C)[C@H](NC(=O)[C@H](CC(C)C)NC(=O)[C@H](CC(C)C)NC(=O)[C@@H](NC(=O)[C@H](Cc1ccccc1)NC(=O)[C@H](CO)NC(=O)[C@H](CC(N)=O)NC(=O)[C@@H](NC(=O)[C@@H](N)CO)C(C)C)[C@@H](C)O)C(=O)O` [3102.0331] (H-SVNSFTLLI-OH) is 2.6 nM.
The figure for `CC(C)C[C@H](NC(=O)[C@H](Cc1ccccc1)NC(=O)[C@H](CO)NC(=O)[C@H](CC(C)C)NC(=O)[C@@H](N)CCCCN)C(=O)N[C@@H](CO)C(=O)N[C@@H](CCCNC(=N)N)C(=O)N[C@H](C(=O)N[C@@H](Cc1ccccc1)C(=O)O)C(C)C` [3102.0332] (H-KLSFLSRVF-OH) is 2.2 nM; for `CC[C@H](C)[C@H](N)C(=O)N[C@H](C(=O)N[C@@H](CO)C(=O)N[C@H](C(=O)N[C@H](C(=O)N[C@@H](CO)C(=O)N[C@@H](CC(C)C)C(=O)N[C@H](C(=O)N[C@H](C(=O)O)[C@@H](C)CC)C(C)C)[C@@H](C)CC)C(C)C)[C@@H](C)CC` [3102.0334] (H-IISVISLVI-OH) it is 47 nM; for `CC[C@H](C)[C@H](NC(=O)[C@H](CCCCN)NC(=O)[C@H](CCC(N)=O)NC(=O)[C@H](C)NC(=O)[C@@H](NC(=O)CNC(=O)[C@H](Cc1ccc(O)cc1)NC(=O)[C@H](CC(C)C)NC(=O)[C@@H](N)CCSC)[C@@H](C)CC)C(=O)O` [3102.0335] (H-MLYGIAQKI-OH) it is 12 nM.
The figure for `CC[C@H](C)[C@H](NC(=O)[C@@H](NC(=O)[C@@H](NC(=O)[C@@H](NC(=O)[C@@H](NC(=O)[C@@H](NC(=O)[C@H](CC(N)=O)NC(=O)[C@@H](NC(=O)[C@@H](N)C(C)C)[C@@H](C)O)C(C)C)[C@@H](C)CC)[C@@H](C)CC)[C@@H](C)CC)C(C)C)C(=O)O` [3102.0336] (H-VTNVIIIVI-OH) is 14 nM.

(Values after PMC2248166, “Quantitative peptide binding motifs for 19 human and mouse MHC class I molecules derived using positional scanning combinatorial peptide libraries” (Immunome Research, 2008).)
